Results on eight molecules are retold here after US4360663A, “Steroid hormone-antitumor derivatives” (Kureha Kagaku Kogyo Kabushiki Kaisha, priority 1978, dated 1982).

Series [1] can be described thus: Acute toxicity (LD50), ICR-JCL female mice, Litchfield-Wilcoxon graph method. Conditions: mouse, in vivo, one dose, in olive oil, after 7 days. The protocol:
In the measurement of LD50, eight ICR-JCL female mice (5 week age) were used as one group to breed in a transparent polycage, and each drug was dissolved in olive oil and administrated by routes of intraperitoneal injection (i.p.), oral administration (p.o.) and subcutaneous injection (s.c.), to the mice at one dose and then, their value of LD50 by Litchfield-Wilcoxon graph method is obtained after 7 days.
(§1) The tests (1), (2), (3) for various active ingredients were carried out.

Series [2] has as its system human breast cancer cells having steroid hormone receptor. As to the kind of experiment: Antitumor test (in vivo), human breast cancer cells implanted in BALB/C-nu/nu mice. Conditions: tumors excised day 25. The protocol:
Pieces of human breast cancer cells having steroid hormone receptor was subcutaneously implanted under the arm of mice (BALB/C-nu/nu) (5 week age) to form solid tumors. After the solid tumors were established, each dispersion or solution of the active ingredient in olive oil was administered by oral dose or intraperitoneal injection each other day for 10 times or every days for 20 times. Twenty five days from the initial administration, the tumors were excised. Efficiency of inhibition of tumor proliferation was measured from (A) each average weight of excised tumors for 10 mice (the active ingredient was administrated) and (B) each average weight of excised tumors for 10 control mice. [formula]
as §1

As a reminder, the LD50 is the dose at which mortality reaches 50%. A high value points to lower toxicity. `CC(=O)Oc1ccc2c(c1)CC[C@@H]1[C@@H]2CC[C@]2(C)[C@@H](OC(=O)Cn3cc(F)c(=O)[nH]c3=O)CC[C@@H]12` [Test No. 9 (Table 18), 3-acetoxy-1,3,5(10)-estratriene-17β-[5-fluoro-2,4-dioxo-pyrimidin-1-yl]acetate]: the values for the LD50 at 168 h in series [1] (ip) and in series [1] (po) were 800 mg/kg and greater than 3000 mg/kg, respectively. Besides, the “Inhibitory effect of tumor, efficiency” value in series [2] (i.p., 15 mg/kg) is reported as 84%; in series [2] (i.p., 30 mg/kg), 93%; in series [2] (p.o., 15 mg/kg) it was 72%; in series [2] (p.o., 30 mg/kg), 87%.
As for `COc1cccc2c1C(=O)c1c(O)c3c(c(O)c1C2=O)C[C@@](O)(C(=O)CO)C[C@@H]3O[C@H]1C[C@H](NCC(=O)O[C@H]2CC[C@H]3[C@@H]4CCc5cc(O)ccc5[C@H]4CC[C@]23C)[C@H](O)[C@H](C)O1` [Test No. 14 (Table 18), 3-glycoloyl-1,2,3,4,6,11-hexahydro-3,5,12-trihydroxy-10-methoxy-6,11-dioxo-1-naphthacenyl-3'-[3-hydroxy-1,3,5(10)-estratriene-17β-oxycarbonylmethyl]amino-2',3',6'-trideoxy-α-L-lyxo-hexapyranoside], the LD50 at 168 h in series [1] (po) is greater than 3000 mg/kg. Moreover, the “Inhibitory effect of tumor, efficiency” value in series [2] (p.o., 10 mg/kg) was 63%; in series [2] (p.o., 50 mg/kg) it was 71%.
`N[C@@H](Cc1ccc(N(CCCl)CCCl)cc1)C(=O)O` [compound 21]: the LD50 at 168 h in series [1] (ip) is 6.2 mg/kg; in series [1] (po) it was 15.9 mg/kg. Moreover, the “Inhibitory effect of tumor, efficiency” value stood at 51% in series [2] (i.p., 0.1 mg/kg); 57% in series [2] (i.p., 0.5 mg/kg); 61% in series [2] (p.o., 1 mg/kg); 72% in series [2] (p.o., 3 mg/kg).
As for `C[C@]12CC[C@@H]3c4ccc(O)cc4CC[C@H]3[C@@H]1CC[C@@H]2OC(=O)COC(=O)[C@H]1OC(O)[C@H](NC(=O)N(CCCl)N=O)[C@@H](O)[C@@H]1O` (stereo partly drawn) [Test No. 2 (Table 18), 3-hydroxy-1,3,5(10)-estratriene-17β-[2-{N'-(2-chloroethyl)-N'-nitrosoureido}-2-deoxy-D-glucuronoyloxy]acetate], the LD50 at 168 h in series [1] (ip) was greater than 180 mg/kg; in series [1] (po) it was greater than 1000 mg/kg. For the same molecule, the “Inhibitory effect of tumor, efficiency” value in series [2] (i.p., 1 mg/kg) is 90%; in series [2] (i.p., 3 mg/kg) it was 92%; in series [2] (p.o., 10 mg/kg) it was 73%; in series [2] (p.o., 40 mg/kg) it was 89%.
With `CN(N=O)C(=O)N[C@H]1C(O)O[C@H](CO)[C@@H](O)[C@@H]1O` (stereo partly drawn) [Test No. 5 (Table 18), 2-(N'--methyl-N'--nitrosoureido)-2-deoxy-D-glucopyranoside, reference compound], the LD50 at 168 h in series [1] (ip) was 264 mg/kg; in series [1] (po), greater than 1000 mg/kg. Moreover, the “Inhibitory effect of tumor, efficiency” value is recorded as 20% in series [2] (i.p., 10 mg/kg); 63% in series [2] (i.p., 50 mg/kg); 69% in series [2] (p.o., 10 mg/kg); 86% in series [2] (p.o., 40 mg/kg).
Take `CCC(=O)Oc1ccc2c(c1)CC[C@@H]1[C@@H]2CC[C@]2(C)[C@@H](OC(=O)CN[C@H]3C[C@H](O[C@H]4C[C@](O)(C(=O)CO)Cc5c(O)c6c(c(O)c54)C(=O)c4c(OC)cccc4C6=O)O[C@@H](C)[C@H]3O)CC[C@@H]12` [compound 16]: the LD50 at 168 h in series [1] (po) was greater than 3000 mg/kg. The “Inhibitory effect of tumor, efficiency” value in series [2] (p.o., 10 mg/kg) was found to be 69%; in series [2] (p.o., 50 mg/kg), 83%.
For the molecule `COc1cccc2c1C(=O)c1c(O)c3c(c(O)c1C2=O)C[C@@](O)(C(=O)CO)C[C@@H]3O[C@H]1C[C@H](NCC(=O)O[C@H]2CC[C@H]3[C@@H]4CCc5cc(OC(=O)c6ccccc6)ccc5[C@H]4CC[C@]23C)[C@H](O)[C@H](C)O1` [compound 17], the LD50 at 168 h in series [1] (po) was greater than 3000 mg/kg. The “Inhibitory effect of tumor, efficiency” value in series [2] (p.o., 10 mg/kg) was found to be 70%; in series [2] (p.o., 50 mg/kg), 79%.
For `COc1cccc2c1C(=O)c1c(O)c3c(c(O)c1C2=O)C[C@@](O)(C(=O)CO)C[C@@H]3O[C@H]1C[C@H](NCC(=O)O[C@H]2CC[C@H]3[C@@H]4CCc5cc(OC(C)=O)ccc5[C@H]4CC[C@]23C)[C@H](O)[C@H](C)O1` [Test No. 15 (Table 18), 3-glycoloyl-1,2,3,4,6,11-hexahydro-3,5,12-trihydroxy-10-methoxy-6,11-dioxo-1-naphthacenyl-3'-[3-acetoxy-1,3,5(10)-estratriene-17β-oxycarbonylmethyl]amino-2',3',6'-trideoxy-α-L-lyxo-hexapyranoside], in that order: greater than 3000 mg/kg, 53% and 79%.
